# What was measured:
# [1] = Polarographic study of the oxidation potential; type: physicochemical; settings: acetonitrile, 0.1 M lithium perchlorate, vitrous carbon electrode, calomel reference
# Description: By a polarographic study of their oxidation potential, compared to well-known antioxidants such as 2,6-diterbutyl-4-methyl-phenol, 2-terbutyl-4-methoxy-phenol, 4-methoxy-phenol and hydroquinone.
# Reference electrode: Calomel electrode containing a saturated solution of anhydrous lithium perchlorate as bridge liquid.
# Working electrode: Vitrous carbon rotating electrode (2,500 r.p.m.)
# Counter-electrode: Platinum electrode
# Acetonitrile containing less than 0.1% of water and presenting no polarographic waves between -2.5 V and +2.5 V.
# Anhydrous lithium perchlorate containing less than 1% of water.
# A 0.1 M solution of lithium perchlorate in acetonitrile, treated and preserved on a 4 A molecular sieve.
# Amplitude of exploration: 0 to 2 V
# Speed of exploration: 10 mV/second
# Sensitivity: 1.25 μA to 50 μA
# Mean concentration: about 0.3×10^-3 mol/liter
# Between each measurement, the vitrous carbon electrode and the platinum electrode were carefully cleaned with Joseph paper.
# [2] = Antioxidant power on a polyvinyl chloride resin, GARDNER method, 185° C.
# Procedure: (§1) By direct comparison, on a polyvinyl chloride resin, of the antioxidant power of Compound 1 of the invention and that of an antioxidant known as one of the most valuable and frequently used in polyvinyl chloride, namely 2,6-diterbutyl-4-methyl-phenol.
# (§2) The antioxidant power of Compound 1 was compared to that of 2,6-diterbutyl-4-methyl-phenol (Compound 2) by using the following resin:
# The study was carried out according to the GARDNER method, the samples being removed from an oven at 185° C. every 10 minutes over a period of 80 minutes.
# The signs + and - have the same meanings as in the previous table and > 2 means that the coloration lies between 2 and 2+.
# [3] = Antioxidant power on a polyvinyl chloride resin, Metrastat oven, 210° C.
# Procedure: as §1, §2
# The same trials were carried out in a Metrastat oven at 210° C.
# [4] = Antioxidant power on a polyvinyl chloride resin, GARDNER method, 185° C.; remark: listed apart in the source
smiles,measurement,setting,value
"Cc1cc(C(C)(C)C)c(O)c(C(C)(C)C)c1 [Compound Z, 2,6-diterbutyl-4-methyl-phenol, reference compound]",Oxidation potential,[1],1.11 ± 0.02 volts
same,"coloration, GARDNER scale","[2]; 0.05 part, 0 min",> 1
same,"coloration, GARDNER scale","[2]; 0.05 part, 40 min",> 6
same,"coloration, GARDNER scale","[2]; 0.05 part, 50 min",7
same,"coloration, GARDNER scale","[2]; 0.05 part, 60 min",7
same,"coloration, GARDNER scale","[2]; 0.05 part, 70 min",8
same,"coloration, GARDNER scale","[2]; 0.05 part, 80 min",Burnt
same,"coloration, GARDNER scale","[2]; 0.1 part, 0 min",> 1
same,"coloration, GARDNER scale","[2]; 0.1 part, 30 min",> 5
same,"coloration, GARDNER scale","[2]; 0.1 part, 40 min",> 6
same,"coloration, GARDNER scale","[2]; 0.1 part, 50 min",7
same,"coloration, GARDNER scale","[2]; 0.1 part, 60 min",7
same,"coloration, GARDNER scale","[2]; 0.1 part, 70 min",8
same,"coloration, GARDNER scale","[2]; 0.2 part, 0 min",> 1
same,"coloration, GARDNER scale","[2]; 0.2 part, 40 min",> 6
same,"coloration, GARDNER scale","[2]; 0.2 part, 50 min",7
same,"coloration, GARDNER scale","[2]; 0.2 part, 60 min",7
same,"coloration, GARDNER scale","[2]; 0.2 part, 70 min",8
same,"coloration, GARDNER scale","[2]; 0.3 part, 20 min",> 2
same,"coloration, GARDNER scale","[2]; 0.3 part, 30 min",6
same,"coloration, GARDNER scale","[2]; 0.3 part, 40 min",7
same,"coloration, GARDNER scale","[2]; 0.3 part, 50 min",8
same,"coloration, GARDNER scale","[2]; 0.3 part, 60 min",8
same,"coloration, GARDNER scale","[2]; 0.4 part, 20 min",3
same,"coloration, GARDNER scale","[2]; 0.4 part, 30 min",> 6
same,"coloration, GARDNER scale","[2]; 0.4 part, 50 min",9
same,"coloration, GARDNER scale","[2]; 0.4 part, 60 min",9
same,"coloration, GARDNER scale","[2]; 0.4 part, 70 min",9
same,"coloration, GARDNER scale","[2]; 0.5 part, 20 min",3
same,"coloration, GARDNER scale","[2]; 0.5 part, 30 min",> 6
same,"coloration, GARDNER scale","[2]; 0.5 part, 40 min",> 7
same,"coloration, GARDNER scale","[2]; 0.5 part, 60 min",8
same,"coloration, GARDNER scale","[2]; 0.5 part, 70 min",8
same,"coloration, GARDNER scale","[2]; 1.0 part, 20 min",> 3
same,"coloration, GARDNER scale","[2]; 1.0 part, 30 min",8
same,"coloration, GARDNER scale","[2]; 1.0 part, 40 min",8
same,"coloration, GARDNER scale","[2]; 1.0 part, 50 min",8
same,"coloration, GARDNER scale","[2]; 1.0 part, 60 min",9
same,"coloration, GARDNER scale","[2]; 1.0 part, 70 min",9
same,time of burning (B),[3]; 0.05 part,38 '
same,"coloration, GARDNER scale","[3]; 0.05 part, 10 to 20 min",2
same,"coloration, GARDNER scale","[3]; 0.05 part, 30 to 35 min",10
same,"coloration, GARDNER scale","[3]; 0.05 part, 35 to 40 min",> 10
same,time of burning (B),[3]; 0.1 part,39 '
same,"coloration, GARDNER scale","[3]; 0.1 part, 10 to 20 min",2
same,"coloration, GARDNER scale","[3]; 0.1 part, 30 to 35 min",11
same,"coloration, GARDNER scale","[3]; 0.1 part, 35 to 40 min",> 11
same,time of burning (B),[3]; 0.2 part,39 '
same,"coloration, GARDNER scale","[3]; 0.2 part, 10 to 20 min",2
same,"coloration, GARDNER scale","[3]; 0.2 part, 30 to 35 min",11
same,"coloration, GARDNER scale","[3]; 0.2 part, 35 to 40 min",> 11
same,time of burning (B),[3]; 0.3 part,39 '
same,"coloration, GARDNER scale","[3]; 0.3 part, 0 to 10 min",< 1
same,"coloration, GARDNER scale","[3]; 0.3 part, 25 to 30 min",3
same,"coloration, GARDNER scale","[3]; 0.3 part, 30 to 35 min",9
same,"coloration, GARDNER scale","[3]; 0.3 part, 35 to 40 min",< 10
same,time of burning (B),[3]; 0.4 part,38 '
same,"coloration, GARDNER scale","[3]; 0.4 part, 10 to 20 min",2
same,"coloration, GARDNER scale","[3]; 0.4 part, 20 to 25 min",3
same,"coloration, GARDNER scale","[3]; 0.4 part, 30 to 35 min",10
same,"coloration, GARDNER scale","[3]; 0.4 part, 35 to 40 min",> 10
same,time of burning (B),[3]; 0.5 part,38 '
same,"coloration, GARDNER scale","[3]; 0.5 part, 10 to 20 min",2
same,"coloration, GARDNER scale","[3]; 0.5 part, 20 to 25 min",3
same,time of burning (B),[3]; 1.0 part,38 '
same,"coloration, GARDNER scale","[3]; 1.0 part, 10 to 20 min",2
same,"coloration, GARDNER scale","[3]; 1.0 part, 25 to 30 min",5
same,"coloration, GARDNER scale","[3]; 1.0 part, 30 to 35 min",11
same,"coloration, GARDNER scale","[3]; 1.0 part, 35 to 40 min",> 11
same,"colour of sheets, in words",[3]; from the time zero,pink-coloured sheets
same,"antioxidant power, Compound 1 vs Compound Z, in words",[4],no concentration in Compound Z gives the best results obtained with Compound 1

# Source: patent US4317768A, “Dihydropyridine derivatives as stabilizers for vinyl chloride polymers” (priority 1977, dated 1982)
